Here are results for 36 compounds from patent US20050004163A1, “3-(diarylmethylene)-8-azabicyclo[3.2.1]octane derivatives” (priority 2000, published 2005).

The target of one data set is T1, μ-opioid receptor (Rattus norvegicus, UniProt P33535).
T1 construct: the forebrains are homogenized in Tris buffer in a Teflon®-glass homogenizer; from tissue; host or cells: forebrain of male Wistar rats (particulate membrane preparation)
T1 sequence (P33535 whole entry): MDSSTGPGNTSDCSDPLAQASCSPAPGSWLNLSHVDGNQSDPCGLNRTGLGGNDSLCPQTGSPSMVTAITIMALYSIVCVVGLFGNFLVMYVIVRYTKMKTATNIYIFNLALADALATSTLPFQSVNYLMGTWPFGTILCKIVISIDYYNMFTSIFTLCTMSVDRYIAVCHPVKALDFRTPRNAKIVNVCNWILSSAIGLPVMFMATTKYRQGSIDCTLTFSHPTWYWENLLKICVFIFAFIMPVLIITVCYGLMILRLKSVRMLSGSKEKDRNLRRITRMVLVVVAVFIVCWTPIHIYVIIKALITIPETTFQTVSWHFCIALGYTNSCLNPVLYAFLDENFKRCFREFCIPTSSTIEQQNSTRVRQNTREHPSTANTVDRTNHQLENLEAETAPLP
As to the kind of experiment: Rat brain μ-opioid receptor binding assay ([3H]DAMGO). Particulars: 10 nM solutions of the compounds, read-out: MOR binding Ki. In a few lines: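 Rat forebrain membranes from male Wistar rats, prepared in 50 mM Tris HCl pH 7.4, used for [3H]DAMGO binding. Filter-bound radioactivity measured by scintillation counting.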
By Ki is commonly meant the dissociation constant of the complex between target and ligand, obtained from inhibition or displacement. `CCNC(=O)c1ccc(C(=C2CC3CCC(C2)N3Cc2ccccn2)c2ccc(C(N)=O)cc2)cc1` [Cpd 183]: the Ki was 5.05 µM. Same read-out and setting: with `CCNC(=O)c1ccc(C(=C2CC3CCC(C2)N3Cc2nccs2)c2ccc(C(N)=O)cc2)cc1` [Cpd 188] the figure was 0.491 µM. For the compound `CCNC(=O)c1ccc(C(=C2CC3CCC(C2)N3CC=C(C)C)c2ccc(CO)cc2)cc1` [Cpd 194], the inhibitory constant (Ki) came to 0.00367 µM. On the same count and under the same terms, as for `CCNC(=O)c1ccc(C(=C2CC3CCC(C2)N3Cc2ccco2)c2nnn[nH]2)cc1` [Cpd 204], the figure is 25.3 µM.

On to `CCNC(=O)c1ccc(C(=C2CC3CCC(C2)N3C=O)c2cccnc2)cc1` [Cpd 207, N-Ethyl-4-[(8-formyl-8-aza-bicyclo[3.2.1]oct-3-ylidene)-pyridin-3-yl-methyl]-benzamide], for which the inhibitory constant (Ki) came out at 10 µM.

The data set is the same for the next values; noted with them: MOR binding Ki.
`CCNC(=O)c1ccc(C(=C2CC3CCC(C2)N3CC(=O)c2cc(C(=O)c3ccc(Cl)cc3)cn2C)c2ccccc2)cc1` [Cpd 88, 4-[(8{2-[4-(4-Chloro-benzoyl)-1-methyl-1H-pyrrol-2-yl]-2-oxo-ethyl}-8-azabicyclo[3.2.1]oct-3-ylidene)-phenyl-methyl]-N-ethyl-benzamide] showed an inhibition constant (Ki) of 0.551 µM.

Take `CNC(=O)c1ccc(C=C2CC3CCC(C2)N3)cc1` [Cpd 103, 4-(8-Aza-bicyclo[3.2.1]oct-3-ylidenemethyl)-N-methyl-benzamide]: the inhibitory constant (Ki) was 10.6 µM. On the same count and under the same terms, with `CCNC(=O)c1ccc(C=C2CC3CCC(C2)N3CCC(C(=O)N(C)C)(c2ccccc2)c2ccccc2)cc1` [Cpd 107, 4-[8-(3-Dimethylcarbamoyl-3,3-diphenyl-propyl)-8-aza-bicyclo[3.2.1]oct-3-ylidenemethyl]-N-ethyl-benzamide] the figure was 0.0228 µM; with `CCNC(=O)c1ccc(C(=C2CC3CCC(C2)N3Cc2nccs2)c2ccc(C(=O)O)cc2)cc1` [Cpd 174], 0.304 µM; with `CCNC(=O)c1ccc(C(=C2CC3CCC(C2)N3Cc2ccsc2)c2cccc(C(=O)O)c2)cc1` [Cpd 175], 0.0344 µM. Still for that read-out and setting: as for `CCNC(=O)c1ccc(C(=C2CC3CCC(C2)N3Cc2ccsc2)c2ccc(C(=O)O)cc2)cc1` [Cpd 176], the figure is 0.0107 µM. `CCNC(=O)c1ccc(C(=C2CC3CCC(C2)N3Cc2ccoc2)c2ccc(C(N)=O)cc2)cc1` [Cpd 177]: the inhibitory constant (Ki) was determined as 0.00134 µM. Take `CCNC(=O)c1ccc(C(=C2CC3CCC(C2)N3Cc2ccoc2)c2cccc(CO)c2)cc1` [Cpd 178]: the Ki is 0.00081 µM. `CCNC(=O)c1ccc(C(=C2CC3CCC(C2)N3Cc2ccco2)c2cccc(CO)c2)cc1` [Cpd 179] returned a Ki of 0.00843 µM.

As for `CCNC(=O)c1ccc(C(=C2CC3CCC(C2)N3Cc2ccco2)c2ccc(C(N)=O)cc2)cc1` [Cpd 180], the inhibitory constant (Ki) was determined as 0.01 µM. On to `CCNC(=O)c1ccc(C(=C2CC3CCC(C2)N3Cc2ccccn2)c2cccc(CO)c2)cc1` [Cpd 181], for which the Ki worked out at 0.00604 µM.

On to `CCNC(=O)c1ccc(C(=C2CC3CCC(C2)N3Cc2ccccn2)c2ccc(NS(C)(=O)=O)cc2)cc1` [Cpd 182], for which the affinity, expressed as Ki, was 0.00271 µM.

`CCNC(=O)c1ccc(C(=C2CC3CCC(C2)N3CCc2ccccc2)c2ccc(NS(C)(=O)=O)cc2)cc1` [Cpd 185] came in with an inhibition constant Ki of 0.0589 µM. Still for that read-out and setting: as for `CCNC(=O)c1ccc(C(=C2CC3CCC(C2)N3Cc2nccs2)c2cccc(CO)c2)cc1` [Cpd 186], the figure is 0.0286 µM; as for `CCNC(=O)c1ccc(C(=C2CC3CCC(C2)N3Cc2nccs2)c2ccc(NS(C)(=O)=O)cc2)cc1` [Cpd 187], 0.121 µM. The compound `CCNC(=O)c1ccc(C(=C2CC3CCC(C2)N3Cc2ccsc2)c2cccc(CO)c2)cc1` [Cpd 189] gave a Ki of 0.0137 µM. On the same count and under the same terms, as for `CCNC(=O)c1ccc(C(=C2CC3CCC(C2)N3Cc2ccsc2)c2ccc(NS(C)(=O)=O)cc2)cc1` [Cpd 190], the figure is 0.000717 µM. On the same count and under the same terms, with `CCNC(=O)c1ccc(C(=C2CC3CCC(C2)N3Cc2ccsc2)c2ccc(C(N)=O)cc2)cc1` [Cpd 191] the figure was 0.0221 µM. As to `CCNC(=O)c1ccc(C(=C2CC3CCC(C2)N3Cc2ccco2)c2ccc(CO)cc2)cc1` [Cpd 192], the Ki stood at 0.0186 µM. On the same count and under the same terms, as for `CCNC(=O)c1ccc(C(=C2CC3CCC(C2)N3Cc2ccccn2)c2ccc(CO)cc2)cc1` [Cpd 193], the figure is 0.0253 µM; as for `CCNC(=O)c1ccc(C(=C2CC3CCC(C2)N3Cc2nccs2)c2ccc(CO)cc2)cc1` [Cpd 195], 0.0642 µM; as for `CCN(CC)C(=O)c1ccc(C(=C2CC3CCC(C2)N3C#N)c2ccccc2)cc1` [Cpd 197, 4-[(8-cyano-8-aza-bicyclo[3.2.1]oct-3-ylidene)-phenyl-methyl]-N,N-diethylbenzamide], 10 µM. Same read-out and setting: with `CCN(CC)C(=O)c1ccc(C(=C2CC3CCC(C2)N3C(=N)N)c2ccccc2)cc1` [Cpd 198, 4-[(8-Carbamimidoyl-8-aza-bicyclo[3.2.1]oct-3-ylidene)-phenyl-methyl]-N,N-diethyl-benzamide] the figure was 10 µM; with `CCN(CC)C(=O)c1ccc(C(=C2CC3CCC(C2)N3C=O)c2ccccc2)cc1` [Cpd 199], 5.34 µM; with `CCNC(=O)c1ccc(C(=C2CC3CCC(C2)N3C(=O)Cc2ccccc2)c2cccnc2)cc1` [Cpd 200, N-Ethyl-4-[(8-phenylacetyl-8-aza-bicyclo[3.2.1]oct-3-ylidene)-pyridin-3-yl-methyl]-benzamide], 0.0133 µM.

`CCNC(=O)c1ccc(C(=C2CC3CCC(C2)N3Cc2ccsc2)c2ccc(CO)cc2)cc1` [Cpd 205] registered a Ki of 0.0172 µM. Same read-out and setting: with `CCNC(=O)c1ccc(C(=C2CC3CCC(C2)N3C(=O)c2cccs2)c2cccnc2)cc1` [Cpd 208, N-Ethyl-4-{pyridin-3-yl-[8-(thiophene-2-carbonyl)-8-aza-bicyclo[3.2.1]oct-3-ylidene]-methyl}-benzamide] the figure was 0.0617 µM; with `CCNC(=O)c1ccc(C(=C2CC3CCC(C2)N3C(=O)c2ccccn2)c2cccnc2)cc1` [Cpd 213], 10 µM. The same measure, in the same setting: with `CCNC(=O)c1ccc(C(=C2CC3CCC(C2)N3C(=O)c2ccoc2)c2cccnc2)cc1` [Cpd 214] the figure was 0.58 µM; with `CCNC(=O)c1ccc(C(=C2C[C@H]3CC[C@@H](C2)N3C(=O)Cc2ccccc2)c2cccnc2)cc1` [Cpd 218, N-Ethyl-4-[((1S,5R)-8-phenylacetyl-8-aza-bicyclo[3.2.1]oct-3-ylidene)-pyridin-3-yl-methyl]-benzamide], 0.00354 µM.

Test system in the next data set: not given
Test: not given
Details: not given
As a reminder, the melting point is the temperature of the solid-liquid transition. Take `CCNC(=O)c1ccc(C(=C2CC3CCC(C2)N3CC(=O)c2cc(C(=O)c3ccc(Cl)cc3)cn2C)c2ccccc2)cc1` [Cpd 88, 4-[(8{2-[4-(4-Chloro-benzoyl)-1-methyl-1H-pyrrol-2-yl]-2-oxo-ethyl}-8-azabicyclo[3.2.1]oct-3-ylidene)-phenyl-methyl]-N-ethyl-benzamide]: the melting point lay in the range of 195 to 196 °C. `CNC(=O)c1ccc(C=C2CC3CCC(C2)N3)cc1` [Cpd 103, 4-(8-Aza-bicyclo[3.2.1]oct-3-ylidenemethyl)-N-methyl-benzamide] returned a melting point of 164 to 166 °C. Same read-out and setting: as for `CCNC(=O)c1ccc(C=C2CC3CCC(C2)N3CCC(C(=O)N(C)C)(c2ccccc2)c2ccccc2)cc1` [Cpd 107, 4-[8-(3-Dimethylcarbamoyl-3,3-diphenyl-propyl)-8-aza-bicyclo[3.2.1]oct-3-ylidenemethyl]-N-ethyl-benzamide], the figure is 137 to 139 °C.

For a further data set, the system named is acetylcholine bromide-induced abdominal constriction response. Put plainly: Mouse acetylcholine bromide-induced abdominal constriction assay. Format: in vivo. The settings on record: dose of 150 μmole/Kg p.o., 5.5 mg/kg acetylcholine bromide i.p. 30 min later, ten min observation. The procedure:
Mouse Acetylcholine Bromide-Induced Abdominal Constriction Assay
The mouse acetylcholine-induced abdominal constriction assay (as described by Collier et al. in Brit. J. Pharmacol. Chem. Ther., 1968, 32:295-310 with minor modifications) was used to assess analgesic potency of the compounds of formula (I). The test drugs or appropriate vehicles were administered orally (p.o.) and 30 min later the animal received an intraperitoneal (i.p.) injection of 5.5 mg/kg acetylcholine bromide (Matheson, Coleman and Bell, East Rutherford, N.J.). The mice were then placed in groups of three into glass bell jars and observed for a ten min observation period for the occurrence of an abdominal constriction response (defined as a wave of constriction and elongation passing caudally along the abdominal wall, accompanied by a twisting of the trunk and followed by extension of the hind limbs). For compounds of the present invention, the percent inhibition of this response to a nociceptive stimulus (equated to % analgesia) was calculated as follows: [formula]
On to `CCN(CC)C(=O)c1ccc(C(=C2CC3CCC(C2)N3C)c2ccccc2)cc1.Cl` [Example 1, N,N-Diethyl-4-[(8-methyl-8-azabicyclo[3.2.1]oct-3-ylidene)phenylmethyl]benzamide Hydrochloride [1:1]], for which the “inhibition response (percent inhibition of abdominal constriction response, equated to % analgesia)” value is 87%.
